Here are results for 84 compounds from PubChem BioAssay AID504313 (Emory University Molecular Libraries Screening Center, 2011).

The source made the active and inactive calls. No rule for the calls is given here. Where only a bound is given, the exact number is not on record here.

This assay has as its target X-box-binding protein 1 (Homo sapiens) (UniProt P17861). The assay is described as follows: inhibitors of XBP1 reporter signal, dose response, counter-screen, cell-based (AID 504313).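 Also: CHO cells carrying an XBP1 reporter stimulated with tunicamycin; potency is for inhibition of the tunicamycin-induced reporter signal.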 To be noted: XBP1 reporter cell assay, percent of control.
As a reminder, the IC50 is the point on the concentration scale where inhibition reaches its midpoint. Regarding `O=C1C=CC(=O)N1N(c1ccccc1)c1ccccc1`, the IC50 was > 10 µM (inactive). In the case of `O=C(Cn1c(C(F)(F)F)nc2ccccc21)N=Nc1c(O)[nH]c2ccc(Br)cc12`, the IC50 was > 10 µM (inactive). On to `COc1cc(/C=C2\COC/C(=C\c3cc(OC)c(OC)c(OC)c3)C2=O)cc(OC)c1OC`, for which the IC50 was 1.39 µM. As for `CN(C)c1ccc(-c2nc3ccccn3c2/N=C/c2ccc(Br)cc2)cc1`, the figure is > 10 µM (inactive). Next, `O=C(CCl)N1CCN2C(=O)c3ccccc3C12c1ccc(Cl)cc1` (centres undefined): “inactive”; `O=C1CC(Sc2nnnn2-c2ccccc2)C(=O)N1c1cccc(Cl)c1` (centres undefined): > 10 µM (inactive); `CCOc1cc(/C=C2/C(=O)ON=C2C)ccc1OCc1ccc(F)cc1`: > 10 µM (inactive). As for `Nc1ccc(SC(F)(F)F)cc1C(=O)c1ccccc1`, the entry is “inactive”; as for `COC(=O)[C@]12OC[C@]34C([C@@H](O)[C@@H]1O)[C@]1(C)CC(=O)C(O)=C(C)[C@@H]1C[C@H]3OC(=O)[C@H](O)[C@@H]24` (some centres undefined), “inactive”; as for `CCCCCCCCNC(C)C(O)c1ccc(SC(C)C)cc1` (centres undefined), 4.76 µM. Regarding `CCCCn1c(NS(=O)(=O)c2ccc(C)cc2)c(S(=O)(=O)c2ccccc2)c2nc3ccccc3nc21`, the IC50 was > 10 µM (inactive).

With `CCOC(=O)c1cc(-c2cccs2)nc2c1c(C)nn2-c1ccccn1`, the IC50 is > 10 µM (inactive).

Consider `Oc1ccc(/C=N/N2CCN(C3c4ccccc4-c4ccccc43)CC2)c(O)c1`, for which the IC50 was > 10 µM (inactive). As for `O=C(NC1CCCCC1)C(c1ccc(F)cc1)N(Cc1ccccc1)C(=O)CN1C(=O)c2ccccc2S1(=O)=O` (centres undefined), the entry is “inactive”. As for `Cc1ccc(-c2nn(-c3ccccc3)cc2/C=N/NC(=O)c2ccc(Br)o2)cc1`, the entry is “inactive”; as for `O=C(Nc1ccc(C(F)(F)F)cc1)c1cc(-c2cccnc2)nc2ccc(Br)cc12`, > 10 µM (inactive); as for `CC(NC(=O)/C(C#N)=C/c1ccc(Cl)c([N+](=O)[O-])c1)c1ccccc1` (centres undefined), > 10 µM (inactive). As for `COc1ccccc1-c1cc(C(F)(F)F)nc(S(=O)(=O)CCCC(=O)Nc2cccnc2Cl)n1`, the figure is > 10 µM (inactive). Turning to `Cc1ccc(N2C(=O)NC(=O)/C(=C\C=C\c3ccco3)C2=O)cc1C`, the IC50 is > 10 µM (inactive). As for `CC(C)c1ccc(-c2cc(C(=O)N3N=C(C(F)F)CC3(O)C(F)F)c3ccccc3n2)cc1` (centres undefined), the IC50 was 5.02 µM. Next, `C=CCn1c(CCc2cc(C(C)(C)C)c(O)c(C(C)(C)C)c2)n[nH]c1=S`: “inactive”; `NC(=O)CC(NC(=O)Cc1cccc2ccccc12)c1ccc(NCCOc2ccccc2)c([N+](=O)[O-])c1` (centres undefined): > 10 µM (inactive).

As to `CC(C)=CCc1c(O)cc2oc3c(CC=C(C)C)c(O)c(O)c(CC=C(C)C)c3c(=O)c2c1O`, the IC50 was 5.24 µM.

Regarding `CCOc1cc(/C=N/NC(=O)Cc2ccc(C(F)(F)F)cc2[N+](=O)[O-])c(Br)cc1OC`, the IC50 entry is “inactive”. As for `CCC(CC)c1nnc(NC(=O)c2c(C)nn(Cc3ccccc3Cl)c2C)s1`, the figure is > 10 µM (inactive).

`COc1cc(/C=C(/C#N)c2nc3ccccc3[nH]2)ccc1OCC(=O)Nc1ccccc1C(C)C`: the IC50 result is “inactive”. As for `CCC(C)[C@@H](NC(=O)OC(C)(C)C)c1nnc(S(=O)(=O)Cc2cccc(C)c2)o1` (some centres undefined), the figure is 4.55 µM. Regarding `COc1ccc(OC)c2sc(NC(=O)c3ccc(Cl)s3)nc12`, the IC50 is > 10 µM (inactive). Next, `CN(C)c1ccc(C(CNS(=O)(=O)c2ccc(F)c(F)c2)c2c[nH]c3ccccc23)cc1` (centres undefined): “inactive”; `CC1CN(S(=O)(=O)c2ccc(C(=O)Nc3nc(-c4cc5ccccc5o4)cs3)cc2)CC(C)O1` (centres undefined): > 10 µM (inactive); `O=C(NC(Nc1nc2ccc([N+](=O)[O-])cc2s1)(C(F)(F)F)C(F)(F)F)c1ccccc1Cl`: 0.34 µM. Next, `CCOc1ccc2nc(NC(=O)CSc3nc4c(c(=O)n(C)c(=O)n4C)n3C(C)C)sc2c1`: > 10 µM (inactive). As to `COc1cc(C(=O)O/N=C2\C=CC(=O)C(C)=C2)cc(OC)c1OC`, the IC50 is > 10 µM (inactive). Next, `OC1(c2cccc(C(F)(F)F)c2)CCN(c2ncnc3c2[nH]c2ccc(F)cc23)CC1`: 3.86 µM; `O=C(Nc1ccc(Cl)c(C(F)(F)F)c1)NC1CC2CCCC(C1)N2Cc1ccccc1` (centres undefined): > 10 µM (inactive); `CC[n+]1c(/C=C2\Sc3ccccc3N2C)ccc2cccc(C)c21`: 0.24 µM. Regarding `O=C(CN1C(=O)c2ccccc2S1(=O)=O)c1ccc2c(c1)OCCCO2`, the IC50 is 0.37 µM.

As to `CCOC(=O)c1c(C(C)(C)C)oc2ccc(O)cc12`, the IC50 is > 10 µM (inactive). As for `Cc1nc(Nc2ccc(F)cc2)[nH]c(=O)c1CCC(C)C`, the entry is “inactive”. For `CC(C)(C)c1ccc(Oc2ccc(N)cc2)cc1`, the IC50 was less than 0.16 µM.

For the compound `CC(C)(C)c1cc(-c2csc(Nc3ccccc3)[n+]2Cc2ccc(C(=O)O)cc2)cc(C(C)(C)C)c1O`, the IC50 result was “inactive”. On to `CCOc1ccc(-n2c(SCC(=O)Nc3ccc(Br)cc3)nc3n[nH]c(C)c3c2=N)cc1`, for which the IC50 is > 10 µM (inactive). As for `Cc1cc(C)cc(OC2CCCCC2NS(=O)(=O)c2ccccc2)c1` (centres undefined), the figure is > 10 µM (inactive).

Turning to `CCCC(=O)OCCNc1cc(Sc2nc3ccccc3[nH]2)c2nonc2c1[N+](=O)[O-]`, the IC50 result was “inactive”. In the case of `CCOc1cc(S(=O)(=O)Nc2ccccc2CC)ccc1Cl`, the IC50 was > 10 µM (inactive). For `C=CS(=O)(=O)c1ccc(Oc2ccc(S(=O)(=O)C=C)cc2)cc1`, the IC50 was 1 µM. As for `CC1CCN(S(=O)(=O)c2ccc3c(c2)C(=NO)c2cc(S(=O)(=O)N4CCC(C)CC4)ccc2-3)CC1`, the figure is 1.27 µM; as for `COc1ccccc1-c1cc(C(F)(F)F)nc(S(=O)(=O)CCCC(=O)Nc2cc(C)on2)n1`, “inactive”; as for `COc1cc(CNCc2ccccn2)ccc1OCc1ccc(Cl)cc1Cl`, > 10 µM (inactive).

With `CC(C)(C)C1C/C(=C/c2ccco2)C(=O)/C(=C/c2ccco2)C1` (centres undefined), the IC50 was > 10 µM (inactive).

As to `O=C1C(C2=NC(c3ccccn3)C3C(=O)N(c4ccc(Cl)cc4Cl)C(=O)C23)=C(O)c2ccccc21` (centres undefined), the IC50 entry is “inactive”. Turning to `CC(=O)C1=C(S(=O)(=O)c2ccc(C)cc2)CS(=O)(=O)C1`, the IC50 is > 10 µM (inactive). Next, `CCCCCc1ccc(OCCOCCn2c[n+](C)c3ccccc32)c(CCCCC)c1`: “inactive”; `C#CC(=O)N(c1ccc(OC)c(OC)c1)C(C(=O)NC1CCCC1)c1cccs1` (centres undefined): “inactive”; `Cc1ccc(CNCc2cc3c(C(C)(C)C)nn(-c4ccccc4)c3[nH]c2=O)cc1`: “inactive”. As to `C=CCN1C(=O)/C(=C/c2ccc(OC(C)=O)c(OCC)c2[N+](=O)[O-])SC1=S`, the IC50 entry is “inactive”.

For `COC(=O)c1ccc2c(c1)C(C)(C)C(/C=C/c1ccc(O)cc1)=[N+]2C`, the IC50 was > 10 µM (inactive). Next, `Cc1ccc2[nH]c3c(c2c1)CN(C(=O)CN1CCN(c2cccc(C)c2C)CC1)CC3`: > 10 µM (inactive); `CC(C)(C)OC(=O)CNC(=O)c1[nH]cnc1C(=O)Nc1ccc(Cl)cc1`: “inactive”; `CCN1/C(=C/C=C/C=C/c2sc3ccccc3[n+]2CC)Sc2ccccc21`: 2.4 µM.

In the case of `O=c1c(Br)c(Br)cnn1-c1ccccc1`, the IC50 entry was “inactive”. Next, `CCN(CC)CCn1c(SCC(=O)Nc2ccc(F)cc2)nc2c(sc3ccccc32)c1=O`: > 10 µM (inactive); `CN1CCN(c2ccc(-c3ccc4ccccc4n3)cc2)CC1`: < 0.16 µM (inactive).

`CC(C)(C)C1C/C(=C/c2ccccn2)C(=O)/C(=C/c2ccccn2)C1` (centres undefined): the IC50 is 0.55 µM.

Turning to `CC1=NNC(=O)/C1=C\c1cn(-c2ccccc2)nc1-c1ccc(F)cc1`, the IC50 result was “inactive”. With `O=S(=O)(Nc1ccccc1)c1ccc(Oc2ncc(C(F)(F)F)cc2Cl)cc1`, the IC50 is 2.15 µM. Next, `O=C(Nc1cc(N2CCOCC2)ncn1)NC1(C(F)(F)F)Oc2ccc(Cl)cc2O1` (centres undefined): > 10 µM (inactive). Consider `CC(C)C[C@H](NC(=O)c1[nH]cnc1C(=O)Nc1ccccc1)C(=O)OC(C)(C)C`, for which the IC50 result is “inactive”. Turning to `CC(C)(C)C(=O)Nc1ccc(-c2nc3ccccc3c(=O)o2)cc1`, the half-maximal inhibitory concentration (IC50) is 1.2 µM. Next, `COc1cc(/C=C/C(=O)OC2CC3CCC2(C)C3(C)C)ccc1O` (centres undefined): > 10 µM (inactive); `CCCOc1ccc(Cc2c(Cl)nc(SC)nc2NC)cc1`: > 10 µM (inactive); `COc1cc(C)nc(N2CCCC(C(=O)Nc3cccc(Cl)c3C)C2)n1` (centres undefined): > 10 µM (inactive). Next, `Cc1ccc(Cn2c(SCC(=O)Nc3cc(C)on3)nc3ccccc3c2=O)cc1`: > 10 µM (inactive); `O=C1CC(c2ccco2)CC(O)=C1C=Nc1ccccc1-c1ccccc1` (centres undefined): “inactive”; `CCCCCCCCCCCCCCCCn1cc[n+](C)c1`: “inactive”. For `FC(F)(F)c1cccc(NC(=S)NC(c2ccccc2)c2ccccc2)c1`, the IC50 was > 10 µM (inactive). Regarding `C=C1C(=O)O[C@@H]2C[C@@H](C)[C@@H]3C=CC(=O)[C@@]3(C)[C@@H](OC(C)=O)[C@H]12`, the IC50 was 2.2 µM. As for `COc1oc(-c2ccc(Cl)cc2)nc1C(F)(F)F`, the IC50 entry was “inactive”. For `CCc1ccc(OCCNC(=O)c2ccccc2SCc2ccccc2)cc1`, the IC50 is > 10 µM (inactive). As for `CCOC(=O)C1=C(C)NC(C)=C(C(=O)OCC)C1/C=C/c1ccccc1`, the entry is “inactive”. On to `CC(=O)C(C(C)=O)c1c(Cl)c(O)c(O)c2c(C(=O)c3ccccc3)coc12`, for which the IC50 entry is “inactive”. Next, `Cc1cc(C(=O)CCl)c(C)n1-c1cccc(S(=O)(=O)N2CCOCC2)c1`: > 10 µM (inactive); `CCCCCCN=C(CC)c1c(O)n(CCCC)c(=O)[nH]c1=O`: “inactive”; `CC1(c2ccccc2)CC(C)(C)n2c(O)c(C3=NC(=S)NC3=O)c3cccc1c32` (centres undefined): > 10 µM (inactive).
